Reference: a melting point compilation (Tetko et al.; mined from patent text by program, amines drawn as free bases though some values may be those of a salt)

Q: Which melting point does the source give for `N#Cc1cccc(C=Cc2cccc(F)c2)n1` here?
A: 111 to 112 °C

Q: With `CCCCc1oc2ccccc2c1C(=O)NCc1ccc2cc(OCC#N)ccc2c1` as the molecule, how does the melting point read?
A: 142 to 143 °C

Q: Which melting point does the source give for `COCCOc1ccc(C=O)c(O)c1` here?
A: 64.5 to 65.5 °C

Q: With `C#Cc1cn(C)c2cc(-c3ccccc3Cl)c3c(c12)C(=O)NC3=O` as the molecule, how does the melting point read?
A: 125 to 129 °C

Q: With `CCCn1c(=O)cc(N)n(-c2ccccc2C)c1=O` as the molecule, how does the melting point read?
A: 226 to 228 °C

Q: Which melting point does the source give for `Cc1oc(C2CCCCC2)nc1CC(=O)O` here?
A: 102 to 103 °C

Q: With `COc1c(C)cc(C2=C(c3ccc(S(C)(=O)=O)cc3)OC(C)(C)C2=O)cc1C` as the molecule, how does the melting point read?
A: 130 to 131 °C

Q: For `CS(=O)(=O)c1ccc(-c2cccn3nc(N)nc23)cc1`, which melting point is on record?
A: 236 to 239 °C

Q: With `COc1ccccc1N1CCN(CC2(C)N=C(c3ccccc3)NC2=O)CC1` (stereo not drawn) as the molecule, how does the melting point read?
A: 86 to 89 °C

Q: Which melting point does the source give for `FC(F)(F)Oc1ccc2nc(-c3ccccc3)[nH]c2c1` here?
A: 208 to 210 °C

Q: Which melting point does the source give for `Cc1cc(-c2nnc3c4ccccc4c(OCc4ccncc4)nn23)no1` here?
A: 244 to 246 °C

Q: Which melting point does the source give for `COc1cc2c(cc1OC)C(C(C#N)SCCO)=NCC2` (stereo not drawn) here?
A: 138 to 140 °C

Q: For `COc1ccc(C2=NNC(=O)[C@H]3CC=CC[C@@H]23)cc1OC1CCCC1` (relative stereo), which melting point is on record?
A: 166 to 168 °C

Q: For `CCCCCNC(=O)N(C)c1cccc(-c2ccc(C=C(OC)C(=O)O)cc2)c1`, which melting point is on record?
A: 144 °C

Q: For `CC(c1ccc(-c2ccccc2)c(F)c1)c1cc(N(C)C(=S)NC(=O)c2ccccc2)on1` (stereo not drawn), which melting point is on record?
A: 115 to 116 °C

Q: Which melting point does the source give for `O=CNc1ccc(OCCNCC(O)c2ccc(O)cc2)cc1` (stereo not drawn) here?
A: 164 to 165 °C

Q: With `CC1(C)CC(=O)c2c(SCCO)sc(-c3ccccn3)c2C1` as the molecule, how does the melting point read?
A: 175 to 177 °C

Q: Which melting point does the source give for `CN(C)C(=O)c1c(-c2ccc(N(C)C)cc2)ccc2ccccc12` here?
A: 156 to 157 °C

Q: With `CCOC(=O)C=Cc1cc(OC)c(OCc2ccccc2)c(OC)c1` as the molecule, how does the melting point read?
A: 68 to 69 °C

Q: With `CCC(=O)NC(C)OC` (stereo not drawn) as the molecule, how does the melting point read?
A: 29 to 32 °C

Q: For `O=C1CCCC(O)=C1C(=O)Nc1ccc(Cl)cc1`, which melting point is on record?
A: 113 to 114 °C

Q: For `CCCCN1C(=O)NC(=Cc2cc(OC)c(OC)cc2OC)C1=O`, which melting point is on record?
A: 170 °C

Q: With `CN1CCCC1=NC(=O)Nc1ccc(Br)cc1` as the molecule, how does the melting point read?
A: 134 to 136 °C

Q: With `COC(=O)c1nc2cc(Cl)ccc2c(O)c1C(=O)OC` as the molecule, how does the melting point read?
A: 232 to 233 °C

Q: For `COc1ccc(N2CCN(c3ccc(NC(=O)NN)cc3)CC2)cc1`, which melting point is on record?
A: 300 °C

Q: For `CCCCCCCCCCCCSC(=O)CS(=O)(=O)Nc1c(C(C)C)cccc1C(C)C`, which melting point is on record?
A: 58 to 60 °C

Q: With `CC(=O)c1cc(Cc2ccccc2)c(O)c2ccccc12` as the molecule, how does the melting point read?
A: 139 to 141 °C

Q: For `O=c1oc(-c2ccccc2)ns1`, which melting point is on record?
A: 64 to 67 °C

Q: Which melting point does the source give for `O=[N+]([O-])c1ccc2[nH]cc(Cn3ccnc3)c2c1` here?
A: 230 to 232 °C

Q: Which melting point does the source give for `Nc1ccc(C(=O)N2CCC=Cc3sccc32)c(Cl)c1` here?
A: 192 to 200 °C

Q: With `COc1ccc(-n2c(=O)cc(C(F)(F)F)n(C)c2=O)c2c1CC(C)(C)O2` as the molecule, how does the melting point read?
A: 201 to 203 °C

Q: Which melting point does the source give for `O=S1(=O)NCCNc2ccc(Oc3cccc(CO)c3)cc21` here?
A: 146 °C

Q: Which melting point does the source give for `CCOC(=O)c1cnc2c(c1O)CCCCCC2` here?
A: 219 to 222 °C

Q: With `CN1C(=O)NC(Cc2c[nH]c3ccccc23)C1CCc1cc(C(F)(F)F)cc(C(F)(F)F)c1` (stereo not drawn) as the molecule, how does the melting point read?
A: 191 °C

Q: Which melting point does the source give for `Cc1nc(C=CNC(=O)c2ccccc2)n[nH]1` here?
A: 140 to 145 °C

Q: Which melting point does the source give for `Cc1cccc(-c2nc3cccnn3c2-c2ccnc(NCC3CCCO3)c2)c1` (stereo not drawn) here?
A: 137 to 138 °C

Q: For `Cn1cc(-c2ccc3c(ccn3-c3ccc(F)cc3)c2)cn1`, which melting point is on record?
A: 144 to 145 °C

Q: For `CCOC(=O)c1ccc(NC(=O)NC2CN(C(=O)c3cccs3)c3ccc(C)cc3N(CC(=O)c3cccs3)C2=O)cc1` (stereo not drawn), which melting point is on record?
A: 244 °C

Q: With `COCCO[C@@H]1c2ccn3c(-c4ccccc4)c(C)nc3c2N[C@H](c2ccccc2)[C@H]1O` as the molecule, how does the melting point read?
A: 190 to 192 °C

Q: With `CN(C)C=C(C#N)C(=O)c1ccco1` as the molecule, how does the melting point read?
A: 117 to 125 °C

Q: With `COc1ccc(S(=O)(=O)N(Cc2cccnc2)c2c(C(=O)O)cnc3snc(C)c23)cc1` as the molecule, how does the melting point read?
A: 234 to 236 °C

Q: For `OCc1ccc2cc(CO)ccc2c1`, which melting point is on record?
A: 171 to 172 °C

Q: With `OCC1CCC2=C(Cc3ccccc32)C1CN1CCCCC1CO` (stereo not drawn) as the molecule, how does the melting point read?
A: 151 to 159 °C

Q: Which melting point does the source give for `Cc1cc(C)n2nc(Sc3ccccc3Cl)nc2n1` here?
A: 143 °C

Q: Which melting point does the source give for `O=C(NC1CCC(CCN2CCC(c3cccc4c3CCO4)CC2)CC1)C1CC1(F)F` (stereo not drawn) here?
A: 199 °C

Q: With `O=C(O)COc1c(-c2cccc(Cl)c2)cc(C(=O)NCCCCCCCCOCc2ccc(Cl)cc2)cc1-c1cccc(Cl)c1` as the molecule, how does the melting point read?
A: 128 to 131 °C

Q: With `O=C1c2cc(OCc3ccccc3)ccc2OCC1Oc1cccnc1` (stereo not drawn) as the molecule, how does the melting point read?
A: 133 to 134 °C

Q: For `Clc1ccc(-c2nc(-n3cncn3)oc2CCC2=NCCO2)cc1`, which melting point is on record?
A: 132 to 133 °C

Q: With `NC1=NN(c2cccc(F)c2)C(c2ccccc2)C1` (stereo not drawn) as the molecule, how does the melting point read?
A: 165 to 166 °C

Q: With `O=C(NO)c1cnc(NS(=O)(=O)c2ccc(C(=O)Nc3ccc(Cl)c(-c4ccccn4)c3)c(Cl)c2)nc1` as the molecule, how does the melting point read?
A: 215 to 220 °C

Q: With `Cc1c(Cl)nc(=O)n(C)c1N` as the molecule, how does the melting point read?
A: 254 to 256 °C

Q: Which melting point does the source give for `COc1ccc(-c2nc3cc(C(N)=O)ccc3[nH]2)c2ccc(C(F)(F)F)nc12` here?
A: 205 to 207 °C

Q: For `CCCCc1nc2c(N)nc3ccccc3c2n1CCOCCN1CCCS1(=O)=O`, which melting point is on record?
A: 152 to 154 °C

Q: With `CC(C)CCCC(C)C1CCC2C3CCC4=CC(=O)C=CC4(C)C3CCC12C` (stereo not drawn) as the molecule, how does the melting point read?
A: 50 to 57 °C

Q: With `COC(=O)c1c(Br)c(F)cc2[nH]ncc12` as the molecule, how does the melting point read?
A: 169 to 171 °C

Q: Which melting point does the source give for `O=C1C(c2cccc(C(F)(F)F)c2Cl)=NN(CCCCC(F)(F)F)C2C=C(Cl)C=CC12` (stereo not drawn) here?
A: 137 to 138 °C

Q: For `CCC1=Nc2ccccc2CC(c2cccnc2)N1C` (stereo not drawn), which melting point is on record?
A: 72 to 75 °C

Q: For `O[C@H]1CCC[C@H]1Oc1cccc2onc(OCC3CCN(CC4(O)CCOCC4)CC3)c12` (relative stereo), which melting point is on record?
A: 141 °C

Q: With `Cc1nc2nc(SCc3ccccc3)nn2cc1Cl` as the molecule, how does the melting point read?
A: 160 to 161 °C

Q: Which melting point does the source give for `CCCCNC(=O)Nc1ccc(OC)cc1C(=O)NCC1CCN(C(c2ccccc2)c2ccccc2)CC1` here?
A: 206 to 208 °C

Q: With `COc1ccc(NC(=O)C(=O)c2c3n(c4ccccc24)CCNCC3)cc1Cl` as the molecule, how does the melting point read?
A: 221 to 223 °C

Q: With `CCCCCCCCc1ccc(N(c2ccc(CCCCCCCC)cc2)C2(c3ccc(N(CC)CC)cc3)OC(=O)c3nccnc32)cc1` (stereo not drawn) as the molecule, how does the melting point read?
A: 180 to 181 °C

Q: For `Cc1ccc(S(=O)(=O)N2CC2CCOS(C)(=O)=O)cc1` (stereo not drawn), which melting point is on record?
A: 78 to 80 °C

Q: Which melting point does the source give for `COc1ccccc1NC(=O)Nc1nc(NCCc2ccc(O)cc2)nc(Oc2ccc3ccccc3c2)n1` here?
A: 238 °C

Q: For `CCCCCc1ccc(C(=O)CCC(=O)O)cc1`, which melting point is on record?
A: 98 to 100 °C

Q: With `CC(=S)NCC1CN(c2ccc(N3CCC4(CC3)NC(=O)NC4=O)c(F)c2)C(=O)O1` (stereo not drawn) as the molecule, how does the melting point read?
A: 218 °C

Q: With `Cc1ccc(C(=O)O)c(OC(=O)C=Cc2ccccc2)c1` as the molecule, how does the melting point read?
A: 156 to 157 °C

Q: With `Nc1nc2c(c(=O)[nH]1)C(CCc1ccc(C(=O)O)cc1)CN2` (stereo not drawn) as the molecule, how does the melting point read?
A: > 290 °C

Q: For `CN(CCC(=O)O)S(=O)(=O)c1c(Cl)cccc1Cl`, which melting point is on record?
A: 115 °C

Q: With `CC(=O)CC(=O)NC1CCCCCC1` as the molecule, how does the melting point read?
A: 52 °C

Q: For `Cc1ccc(N2CN(CCN(C)C)CN(C)C2=S)c(C)c1`, which melting point is on record?
A: 65 to 70 °C

Q: With `Cc1noc(NS(=O)(=O)c2ccccc2-c2ccc(-c3ncco3)cc2CN(C(=O)C(C)C)C2CC2)c1C` as the molecule, how does the melting point read?
A: 110 to 120 °C

Q: For `CC(=O)N1CCNC1=Nc1ccc(Cl)cc1Cl`, which melting point is on record?
A: 168 to 169 °C
